Columns and labels:
[1] = Light stability test (solar simulator, HPLC quantification); type: physicochemical; details: wt. % based on sum E isomer + Z isomer; for Degradation after 2 h: solar simulator 40 W/m^2, 2 h; for Degradation after 4 h: solar simulator 40 W/m^2, 4 h
Protocol: 20 μl of a 1-3 wt. % solution of each of the test compounds of formula (I) in a low-volatility solvent (e.g. isopropyl myristate, miglyol or glycerol) are distributed uniformly over microscope slides using a pipette. These loaded slides are then irradiated in a solar simulator with an intensity of 40 W/m^2 (for 2 h or 4 h in each case).
When the irradiation has ended, the slides are each separately laid in a glass dish containing an organic solvent (methanol, isopropanol, etc.) and the organic substances present thereon are detached in an ultrasonic bath. The resulting solutions are each transferred to a 10 ml or 25 ml volumetric flask and made up to the calibration mark with solvent. Non-irradiated slides are treated likewise as references.
The samples (contents of the respective volumetric flasks) are evaluated via HPLC quantification. These values are compared with the non-irradiated references and the degradation rate during irradiation is reported in [wt. %] per unit time, based on the sum [E isomer+Z isomer].

AhR = target: T1, AhR (Homo sapiens, UniProt P35869); test: Fluorescence microscopy of GFP-coupled AhR translocation in HaCaT cells transfected with pEGFP-AhR; type: cell-based; details: in the presence and absence of UVB light
T1 construct: endogenous in cells; host or cells: HaCaT keratinocytes
T1 sequence (P35869 11-848): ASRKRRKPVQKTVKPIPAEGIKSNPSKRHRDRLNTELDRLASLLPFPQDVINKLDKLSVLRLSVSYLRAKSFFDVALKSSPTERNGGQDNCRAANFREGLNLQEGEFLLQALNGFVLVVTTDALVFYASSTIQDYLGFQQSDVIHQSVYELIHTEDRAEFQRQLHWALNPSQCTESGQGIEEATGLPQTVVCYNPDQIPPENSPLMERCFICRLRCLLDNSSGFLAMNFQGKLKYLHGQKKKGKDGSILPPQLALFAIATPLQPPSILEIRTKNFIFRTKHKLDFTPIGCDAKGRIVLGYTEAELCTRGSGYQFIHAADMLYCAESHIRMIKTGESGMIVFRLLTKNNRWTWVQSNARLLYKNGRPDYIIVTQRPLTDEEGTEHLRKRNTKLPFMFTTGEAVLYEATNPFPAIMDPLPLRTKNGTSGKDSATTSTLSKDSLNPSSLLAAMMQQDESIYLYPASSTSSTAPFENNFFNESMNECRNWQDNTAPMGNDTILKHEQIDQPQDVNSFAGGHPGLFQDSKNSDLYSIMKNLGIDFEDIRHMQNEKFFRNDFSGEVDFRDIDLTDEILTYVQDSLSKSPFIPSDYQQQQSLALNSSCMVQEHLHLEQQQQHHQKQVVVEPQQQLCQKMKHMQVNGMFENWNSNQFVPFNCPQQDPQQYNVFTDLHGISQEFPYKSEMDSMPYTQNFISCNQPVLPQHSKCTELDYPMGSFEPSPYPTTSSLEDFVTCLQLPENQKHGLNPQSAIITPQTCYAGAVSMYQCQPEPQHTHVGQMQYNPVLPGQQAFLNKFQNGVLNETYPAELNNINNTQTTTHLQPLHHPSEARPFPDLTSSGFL
Text: HaCaT keratinocytes were cultivated in DMEM containing 10% of foetal calf serum. The cells were irradiated with UVB in PBS (phosphate buffered saline). For irradiation with UVB we used a TL20W/12RS lamp, which contains four parallel tubes (Philips, Eindhoven, The Netherlands) and emits the bulk of its energy in the UVB range (290-320 nm). The emission peak of the lamp is at 310 nm. Control cells were subjected to the same treatment but were not irradiated. To inhibit the AhR, the cells were treated with the test substances 1 h prior to irradiation.
HaCaT cells were plated out on compartmentalized microscope slides at a cell density of 5×10^4 cells/compartment. Some were pretreated for 1 h with the test substances. After 24 h these were transfected with plasmid pEGFP-AhR by means of the FuGene 6 transfection reagent (Roche, Mannheim, Germany) according to the manufacturer's instructions. After a further 24 h the transfected cells were irradiated with 100 J/m^2 of UVB. After 40 min the cells were fixed for 10 min with 4% paraformaldehyde and washed with PBS. The slides were dried and covered with Vectashield mounting medium (Vector Laboratories, Burlingame, Calif., USA). The GFP-coupled AhR was visualized by means of a fluorescence microscope (Olympus, Hamburg, Germany) and photographed with a ColorView XS digital camera (Olympus).

Row | Degradation after 2 h [1] [%] | Degradation after 4 h [1] [%] | SMILES | translocation of the AhR into the cell nucleus (AhR)
1 | 77 | 84 | Oc1ccc(C=Cc2cc(O)cc(O)c2)cc1 (mixture of isomers) [Resveratrol (E/Z mixture), 3,5,4′-trihydroxystilbene, reference compound] | –
2 | 7 | 7 | COc1cc2c(cc1OC)C(C)(C)/C(=C\c1ccccc1)C2=O [Compound (Ia)] | –
3 | 95 | 100 | CC1=C(/C=C/C(C)=C/C=C/C(C)=C/C(=O)O)C(C)(C)CCC1 [Vitamin A acid, reference compound] | –

Further lines, the compound ahead of its results:

Row | SMILES | Degradation after 2 h [1] [%] | Degradation after 4 h [1] [%] | translocation of the AhR into the cell nucleus (AhR)
4 | COc1cc(-c2cc(=O)c3ccccc3o2)ccc1[N+](=O)[O-] [3-methoxy-4-nitroflavone] | – | – | inhibited the translocation of the AhR into the cell nucleus
5 | COc1ccc(/C=C2/C(=O)c3ccccc3C2(C)C)cc1OC [(Ib)] | 4 | 15 | –
6 | CCCCOc1cc2c(cc1C)C(=O)/C(=C/c1ccc(OC)cc1)C2(C)C [(Id)] | 7 | 11 | –

From patent US7855310B2, “AH receptor antagonists” (SYMRISE GmbH & Co. KG, priority 2006, dated 2010)
